In patent US20220128542A1, “TREATMENT EFFICIENCY EVALUATION” (TX MEDIC AB, priority 2019, published 2022):

Tested on: Human Schwann cells
Assay: Gene expression array and pathway/upstream regulator analysis in Schwann cells (Example 2)
Type: cell-based
Details: 0.01 mg/ml
Method: For each cell line, n=8×25 cm^2 culture flasks were set up. Two flasks were harvested for each cell type on the day of treatment (24 hours after seeding). This represents the Day0 time point. From the remaining flasks, three flasks were treated with Control Medium and three were treated with Culture Medium (CM) containing LMW-DS to give a final concentration of 0.01 mg/ml. Cells from the treated flasks were collected after 48 hours. Therefore the collected data represent (a) untreated cells (Day0 Controls and Day2 Controls) and (b) cells treated with LMW-DS for 48 hours (Day2 LMW-DS treated).
25 cm^2 flasks were coated by adding 2 ml per flask of a solution of 50 μg/ml poly-d-lysine in Hank's balanced salt solution (HBSS) and incubating overnight at 37° C. in the dark. Flasks were washed with cell culture water and air-dried for 30 min in the dark. Flasks were coated by adding 1 ml per flask of a solution of 25 μg/ml laminin in phosphate-buffered saline (PBS) and incubating for 2 hour at 37° C. in the dark. The laminin flasks were washed with PBS three times before plating cells.
Schwann cells growth medium was prepared by adding 10% of fetal bovine serum (FBS) to high-glucose DMEM and pre-warmed to 37° C. Cells were thawed in a 37° C. water bath for no longer than 2 min.
Cells from 12 vials were each gently transferred to a tube containing 10 ml of high-glucose DMEM medium and centrifuged at 400 relative centrifugal field (RCF) for 10 min. Pellet was re-suspended in culture medium. The cells from the 12 vials were mixed and distributed equally into the previously coated 25 cm^2 flasks (n=8). Cells were incubated at 37° C. with 5% CO2. Cells were allowed to settle for 24 hours before LMW-DS treatment.
A fresh 100× LMW-DS stock (1.0 mg/ml) was prepared in sterile DMEM-F12. The concentrated drug stock was sterile filtered and added to the respective culture media (19.6 ml CM and 0.4 ml LMW-DS stock solution). The Control was made using 19.6 ml CM and 0.4 ml of DMEM-F12. LMW-DS and CM were added to the respective flasks (5 ml each) to reach the 0.01 mg/ml concentration of LMW-DS in each dish with a total of 10 ml CM each.
CM was aspirated into a clean and labelled 15 ml Falcon tube. The flasks (without culture medium) were placed into the −80° C. freezer for 30 minutes. The CM in the Falcon tubes was spun at 3000×g for 5 minutes. Supernatant was removed and the small pellet was re-suspended in 2.5 ml Trizol:Water (4:1) solution at room temperature (RT, ˜22° C.).
The frozen flasks were removed one-by one from the freezer and the Trizol-Water from the appropriate tubes was moved to the flask. Flasks were left at RT for 5 minutes before the content was aspirated back into the 15 ml Falcon tube (after washing the bottom of the flask with the solution thoroughly). The flasks were inspected under the microscope to ensure full removal of cells. The collected lysates in the 15 ml Falcon tubes were placed into the −80° C. freezer.
Falcon tubes containing the homogenates were removed from the freezer and stored for 5 minutes at RT to permit the complete dissociation of nucleoprotein complexes.
Two aliquots of 1 ml lysate were removed from each sample and 200 μl of chloroform was added to each (0.2 ml of chloroform per 1 ml of TRIzol Reagent used during the cell lysis step) and the tube was shaken vigorously. Samples were stored at RT for 2-3 minutes and subsequently centrifuged at 12,000×g for 15 minutes at 4° C.
The mixture separated into three layers: a lower red phenol-chloroform phase, an interphase and a colorless upper aqueous phase. The RNA remained in the top aqueous phase, DNA in the white middle (interphase) phase and protein in the pink bottom (organic) phase. The top ¾ of the aqueous phase was transferred to a new clean Eppendorf tube.
The RNA was precipitated from the aqueous phase by adding an equal amount of 100% ethanol. The precipitated RNA was fixed onto a Spin Cartridge, washed twice and dried. […]

Question: How did the “number of genes: no effect / abolished nutrient effect” value (48 hours) turn out when sodium salt of dextran sulfate [LMW-DS] was run?
Answer: 21

Question: What about the “number of genes: no effect / total” value (48 hours) of the same substance?
Answer: 21

Question: What about the “number of genes: significant downregulation / abolished nutrient effect” value (48 hours) of the same substance?
Answer: 1

Question: And the “number of genes: significant downregulation / enhanced response to nutrients” value (48 hours)?
Answer: 122

Question: And the “number of genes: significant downregulation / new effect induced by LMW-DS” value (48 hours)?
Answer: 352

Question: What about the “number of genes: significant downregulation / not different from control” value (48 hours) of the same substance?
Answer: 42

Question: And the “number of genes: significant downregulation / total” value (48 hours)?
Answer: 517

Question: And the “number of genes: significant upregulation / abolished nutrient effect” value (48 hours)?
Answer: 13

Question: What about the “number of genes: significant upregulation / enhanced response to nutrients” value (48 hours) of the same substance?
Answer: 441

Question: And the “number of genes: significant upregulation / new effect induced by LMW-DS” value (48 hours)?
Answer: 74

Question: And the “number of genes: significant upregulation / not different from control” value (48 hours)?
Answer: 373

Question: What about the “number of genes: significant upregulation / total” value (48 hours) of the same substance?
Answer: 901

Question: What about the “number of genes: total / abolished nutrient effect” value (48 hours) of the same substance?
Answer: 35

Question: What about the “number of genes: total / enhanced response to nutrients” value (48 hours) of the same substance?
Answer: 563

Question: And the “number of genes: total / new effect induced by LMW-DS” value (48 hours)?
Answer: 426

Question: And the “number of genes: total / not different from control” value (48 hours)?
Answer: 415

Question: And the “number of genes: total / total” value (48 hours)?
Answer: 1439

Question: And the differentially expressed genes (D0 control vs D2 LMW-DS treated)?
Answer: 1244 genes

Question: What about the differentially expressed genes (D2 control vs D2 LMW-DS treated) of the same substance?
Answer: 700 genes
